Experiment [1] has as its target Mitogen-activated protein kinase 14 (Homo sapiens, UniProt Q16539). Description: NanoBRET (MAPK14). (Bioluminescence resonance energy transfer reports proximity on the nanometre scale.)
Experiment [2] addresses Mitogen-activated protein kinase 11 (Homo sapiens, UniProt Q15759). The experiment is described as follows: NanoBRET (MAPK11).
For experiment [3], the target named is Heat shock protein beta-1 (Homo sapiens, UniProt P04792). Description: Inhibition of HSP27 (Ser82) (Western blot).
Chain of Heat shock protein beta-1 (P04792 whole entry): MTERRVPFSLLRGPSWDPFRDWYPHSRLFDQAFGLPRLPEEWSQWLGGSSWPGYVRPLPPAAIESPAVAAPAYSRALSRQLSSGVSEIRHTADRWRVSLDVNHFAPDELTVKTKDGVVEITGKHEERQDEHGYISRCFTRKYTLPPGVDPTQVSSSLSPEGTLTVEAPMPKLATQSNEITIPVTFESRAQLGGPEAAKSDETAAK

This is an account of results in ChEMBL document CHEMBL4507314 (2021).

Molecules are shown by their SMILES. Activity calls are given as the source filed them. No cut-off for these calls is given here. Some results are limits rather than exact numbers.

Chain of Mitogen-activated protein kinase 11 (Q15759 whole entry): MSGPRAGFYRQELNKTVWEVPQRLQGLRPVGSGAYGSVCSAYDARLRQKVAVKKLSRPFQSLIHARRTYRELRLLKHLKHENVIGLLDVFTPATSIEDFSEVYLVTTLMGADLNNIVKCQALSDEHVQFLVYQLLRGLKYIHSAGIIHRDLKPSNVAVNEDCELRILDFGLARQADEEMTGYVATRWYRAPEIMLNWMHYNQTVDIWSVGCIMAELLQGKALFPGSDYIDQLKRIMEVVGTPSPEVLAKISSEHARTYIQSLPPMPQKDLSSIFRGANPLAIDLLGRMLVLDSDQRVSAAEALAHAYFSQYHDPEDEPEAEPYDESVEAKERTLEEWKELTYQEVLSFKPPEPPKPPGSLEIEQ
Chain of Mitogen-activated protein kinase 14 (Q16539 whole entry): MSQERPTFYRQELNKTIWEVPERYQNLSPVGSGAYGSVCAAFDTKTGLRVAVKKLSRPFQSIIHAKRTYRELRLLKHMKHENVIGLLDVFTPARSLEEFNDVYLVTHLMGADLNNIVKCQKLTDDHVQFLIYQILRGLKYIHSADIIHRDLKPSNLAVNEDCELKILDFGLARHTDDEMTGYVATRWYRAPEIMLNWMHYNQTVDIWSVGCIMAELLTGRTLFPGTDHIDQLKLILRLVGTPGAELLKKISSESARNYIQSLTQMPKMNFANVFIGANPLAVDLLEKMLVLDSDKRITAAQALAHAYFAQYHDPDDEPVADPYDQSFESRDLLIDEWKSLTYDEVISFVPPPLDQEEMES

Usually IC50 stands for the concentration at which inhibition is half-maximal. Take `CN(C(=O)c1ccccc1)c1cc(N(C)c2ccc3c(c2)CCc2ccc(C(=O)NCCN4CCOCC4)cc2C3=O)ccc1F` [FM-743]: the values for the IC50 in experiment [1] and in experiment [2] were 11.3 µM (not active) and 16.2 µM (not active), respectively.
For the compound `O=C(NCCN1CCOCC1)c1ccc2c(c1)C(=O)c1ccc(Nc3ccc(F)c(NC(=O)c4ccccc4)c3)cc1CC2` [FS-694], the figures for the IC50 in experiment [2] and in experiment [3] were 0.0169 µM (active) and < 1 µM (active), respectively.
